Test results: patent US20140179773A1, “METHOD FOR THE TREATMENT OF HEART RELATED DISORDERS IN NAFLD PATIENTS” (INSTITUTO BIOCHIMICO ITALIANO GIOVANNI LORENZINI S.P.A., priority 2012, published 2014)

What was measured:
Assay type in all cases: in vivo
[1] = system: db/db mice fed a methionine-choline deficient (MCD) diet; experiment: Biometric and serum biochemical parameters in db/db mice fed MCD diet
Text: This study is aimed at assessing the efficacy of silibinin both on liver and heart injury in NAFLD and at identifying the related molecular events. In order to investigate this issue, we used db/db mice fed a methionine-choline deficient (MCD) diet, a model combining the features of the metabolic syndrome with the histological pattern of NASH [23,24]. In fact, db/db mice fed an MCD diet do partially conserve increased visceral adiposity and an insulin resistant phenotype, while developing hepatocellular injury.
(§1) All procedures fulfilled the Italian Guidelines for the Use and Care of Laboratory Animals. Six-week-old male BKS.Cg-m+/+ Leprdb/J (db/db) obese mice and six-week-old male heterozygous db/m lean control mice were purchased. Animals were maintained in a temperature and light-controlled facility and permitted ad libitum consumption of water; after two week of acclimation, db/db mice were fed a MCD diet for 4 weeks, whereas db/m mice were fed a MCD diet supplemented with methionine and choline, i.e. a standard diet (SD), for the same period. Silibinin was dissolved in saline (vehicle) and daily administered intraperitoneally at a dosage of 20 mg/kg of body weight. Mice were distributed in 3 groups: group I included 6 db/m mice fed a control diet and treated with vehicle (db/m+SD); group II comprised 6 db/db mice fed a MCD diet and treated with vehicle (db/db+MCD); group III included 6 db/db mice fed a MCD diet and treated with silibinin (db/db+MCD+silibinin). Treatment was administered for a 4-week period; at the end of it, animals were sacrificed after an overnight fast. Blood, liver and heart samples were obtained and stored at −80° C. for further analysis.
(§2) Blood glucose was measured by Accuchek (Roche Diagnostics, Milan, Italy). Serum ALT and serum insulin were determined using a multichannel autoanalyzer. Liver triglycerides content was measured using a serum/tissue triglyceride colorimetric kit (Biovision, Mountain View, Calif.). Liver and heart isoprostanes and 8-hydroxyguanosine (8-OHG) were determined by enzyme-linked immunosorbent assay (ELISA) test; reduced glutathione (GSH) was assessed by a GSH assay. Liver and heart nitrite/nitrates were measured colorimetrically using Griess reagent, following manufacturer's instructions. ELISA kit for TNF-α was used on whole myocardial tissue protein extracts, following manufacturer's instructions.

[2] = system: db/db mice fed a methionine-choline deficient (MCD) diet; experiment: Liver triglycerides content (colorimetric kit) in db/db mice fed MCD diet; conditions: 4 weeks MCD diet, silibinin 20 mg/kg i.p. daily
Text: All procedures fulfilled the Italian Guidelines for the Use and Care of Laboratory Animals. Six-week-old male BKS.Cg-m+/+ Leprdb/J (db/db) obese mice and six-week-old male heterozygous db/m lean control mice were purchased. Animals were maintained in a temperature and light-controlled facility and permitted ad libitum consumption of water; after two week of acclimation, db/db mice were fed a MCD diet for 4 weeks, whereas db/m mice were fed a MCD diet supplemented with methionine and choline, i.e. a standard diet (SD), for the same period. Silibinin was dissolved in saline (vehicle) and daily administered intraperitoneally at a dosage of 20 mg/kg of body weight. […]
as §2, with “ELISA kit for TNF-α was used on whole myocardial tissue protein extracts, following manufacturer's instructions.” left out

[3] = system: Liver mitochondrial respiratory chain (MRC) complexes I-V; experiment: Mitochondrial respiratory chain activity assay in liver of treated mice; conditions: activity relative to db/m + SD group = 100, MCD diet, silibinin 20 mg/kg i.p. daily 4 weeks
Text: as §1, with “analysis. Mitochondrial respiratory chain (MRC) activities was determined as previously described. Briefly, liver tissues (50-70 mg) were homogenized with 15 vol of 20 mmol/L KP buffer, pH 7.4, and centrifuged at 800×g for 10 min. Respiratory chain enzymes and citrate synthase activities were measured in a DU-650 spectrophotometer. Incubation temperatures were 30° C. for complexes I, II, III, V, and citrate synthase, and 38° C. for complex IV. Enzyme activities were assessed in supernatants, expressed as nanomoles of substrate used per minute per milligram of protein and referred as a percentage of the specific activity of citrate synthase, to adjust for the hepatic content of mitochondria.” for “analysis.”

[4] = db/db mice, 4 weeks MCD diet, silibinin 20 mg/kg i.p. daily
[5] = db/db mice, 4 weeks MCD diet, silibinin 20 mg/kg i.p. daily, overnight fast

For `COc1cc(C2Oc3cc([C@H]4Oc5cc(O)cc(O)c5C(=O)[C@@H]4O)ccc3OC2CO)ccc1O` (stereo partly shown) [silibinin, Silibinin], the “Effect on food intake” value ([1]; data not shown) was “did not modify”, the HOMA-IR [1, 4] was 1.7 ± 0.5*, ** and the “Serum ALT” value [1, 4] was 180.5 ± 66.5*, ** IU/L. For the same compound, the Blood glucose [1, 5] was 103.7 ± 16.8*, ** mg/dL, the Serum insulin [1, 5] was 6.5 ± 1.1 mU/mL and the 12-Weeks weight ([1]; db/db mice, after 4 weeks MCD diet and silibinin 20 mg/kg i.p. daily) was 34.8 ± 1.9 g. The “Decrease of ALT levels” value ([1]; silibinin-treated vs vehicle db/db fed MCD diet) was 3 fold, the Liver triglycerides [2] was 8.3 ± 2.4*, ** mg/g protein and the “Liver MRC complex I” value [3] was 90.2 ± 5.2. The “Liver MRC complex II” value [3] was 88.4 ± 4.3, the “Liver MRC complex III” value [3] was 94.4 ± 6.8 and the “Liver MRC complex IV” value [3] was 96.1 ± 5.2. The “Liver MRC complex V” value [3] was 94.3 ± 6.2.
